Assay results: patent US4684664A, “Derivatives of β-(4-isocyano-1,2,3,4-diepoxycyclopentyl) acrylic acid” (Kureha Kagaku Kogyo Kabushiki Kaisha, priority 1984, dated 1987)
≈ marks a conversion by molar mass, not a printed value.

Columns and labels:
Type in all cases: cell-based
[1] = system: Staphylococcus aureus FDA 209PJc-1; assay: Antibacterial activity, agar-dilution MIC, organism No. 1; conditions: Staphylococcus aureus, FDA209PJC1; Organism No. 1, bouillon-agar; read-out: Minimum Inhibitory Concentration
Outline: (§1)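 Endpoint: MIC in μg/ml of culture medium. Method: agar dilution. Medium: bouillon agar.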

[2] = system: Staphylococcus aureus Terajima; assay: Antibacterial activity, agar-dilution MIC, organism No. 2; conditions: Staphylococcus aureus; Organism No. 2, bouillon-agar; read-out: Minimum Inhibitory Concentration
Outline: as §1

[3] = system: Staphylococcus aureus MS 353; assay: Antibacterial activity, agar-dilution MIC, organism No. 3; conditions: Staphylococcus aureus, MS353; Organism No. 3, bouillon-agar; read-out: Minimum Inhibitory Concentration
Outline: as §1

[4] = system: Streptococcus pyogenes Cook; assay: Antibacterial activity, agar-dilution MIC, organism No. 4; conditions: Streptococcus pyogenes; Organism No. 4, bouillon-agar; read-out: Minimum Inhibitory Concentration
Outline: as §1

[5] = system: Escherichia coli NIHJ-JC-2; assay: Antibacterial activity, agar-dilution MIC, organism No. 5; conditions: Escherichia coli, NIHJJC2; Organism No. 5, bouillon-agar; read-out: Minimum Inhibitory Concentration
Outline: as §1

[6] = system: Escherichia coli K12 C600 IAM 1264; assay: Antibacterial activity, agar-dilution MIC, organism No. 6; conditions: Escherichia coli, IAM1264; Organism No. 6, bouillon-agar; read-out: Minimum Inhibitory Concentration
Outline: as §1

[7] = system: Klebsiella pneumoniae PCI-602; assay: Antibacterial activity, agar-dilution MIC, organism No. 7; conditions: Klebsiella pneumoniae, PCI602; Organism No. 7, bouillon-agar; read-out: Minimum Inhibitory Concentration
Outline: as §1

[8] = system: Salmonella typhimurium IID 971; assay: Antibacterial activity, agar-dilution MIC, organism No. 8; conditions: Salmonella enterica; Organism No. 8, bouillon-agar; read-out: Minimum Inhibitory Concentration
Outline: as §1

[9] = system: Salmonella typhi 901; assay: Antibacterial activity, agar-dilution MIC, organism No. 9; conditions: Salmonella enterica, TYPHI, read-out: Minimum Inhibitory Concentration
Outline: as §1

[10] = system: Salmonella paratyphi-A 1015; assay: Antibacterial activity, agar-dilution MIC, organism No. 10; conditions: Salmonella enterica, PARATYPHI, read-out: Minimum Inhibitory Concentration
Outline: as §1

[11] = system: Salmonella shottmuelleri 8006; assay: Antibacterial activity, agar-dilution MIC, organism No. 11; conditions: Salmonella, 8006; Organism No. 11, bouillon-agar; read-out: Minimum Inhibitory Concentration
Outline: as §1

[12] = system: Salmonella enteritidis G 14; assay: Antibacterial activity, agar-dilution MIC, organism No. 12; conditions: Salmonella enterica, ENTERITIDIS; Organism No. 12, bouillon-agar; read-out: Minimum Inhibitory Concentration
Outline: as §1

[13] = system: Serratia marcescens IAM 1184; assay: Antibacterial activity, agar-dilution MIC, organism No. 13; conditions: Serratia marcescens, IAM1184; Organism No. 13, bouillon-agar; read-out: Minimum Inhibitory Concentration
Outline: as §1

[14] = system: Bacillus subtilis ATCC 6633; assay: Antibacterial activity, agar-dilution MIC, organism No. 14; conditions: Bacillus subtilis, ATCC6633; Organism No. 14, bouillon-agar; read-out: Minimum Inhibitory Concentration
Outline: as §1

[15] = system: Pseudomonas aeruginosa IFO 3445; assay: Antibacterial activity, agar-dilution MIC, organism No. 15; conditions: Pseudomonas aeruginosa, IFO3445; Organism No. 15, bouillon-agar; read-out: Minimum Inhibitory Concentration
Outline: as §1

[16] = system: Pseudomonas aeruginosa NCTC 10490; assay: Antibacterial activity, agar-dilution MIC, organism No. 16; conditions: Pseudomonas aeruginosa, NCTC10490; Organism No. 16, bouillon-agar; read-out: Minimum Inhibitory Concentration
Outline: as §1

[17] = system: Pseudomonas aeruginosa PAO 1; assay: Antibacterial activity, agar-dilution MIC, organism No. 17; conditions: Pseudomonas aeruginosa, PAO1; Organism No. 17, bouillon-agar; read-out: Minimum Inhibitory Concentration
Outline: as §1

[18] = system: Proteus morganii IFO 3848; assay: Antibacterial activity, agar-dilution MIC, organism No. 18; conditions: Morganella morganii, IFO3848; Organism No. 18, bouillon-agar; read-out: Minimum Inhibitory Concentration
Outline: as §1

[19] = system: Proteus mirabilis IFO 3849; assay: Antibacterial activity, agar-dilution MIC, organism No. 19; conditions: Proteus mirabilis, IFO3849; Organism No. 19, bouillon-agar; read-out: Minimum Inhibitory Concentration
Outline: as §1

[20] = system: Proteus vulgaris OX-19; assay: Antibacterial activity, agar-dilution MIC, organism No. 20; conditions: Proteus vulgaris, OX19; Organism No. 20, bouillon-agar; read-out: Minimum Inhibitory Concentration
Outline: as §1

[21] = system: Proteus vulgaris HX-19; assay: Antibacterial activity, agar-dilution MIC, organism No. 21; conditions: Proteus vulgaris, HX19; Organism No. 21, bouillon-agar; read-out: Minimum Inhibitory Concentration
Outline: as §1

[22] = system: Proteus rettgeri IFO 3850; assay: Antibacterial activity, agar-dilution MIC, organism No. 22; conditions: Providencia rettgeri, IFO3850; Organism No. 22, bouillon-agar; read-out: Minimum Inhibitory Concentration
Outline: as §1

[23] = system: Enterobacter aerogenes ATCC 13048; assay: Antibacterial activity, agar-dilution MIC, organism No. 23; conditions: Klebsiella aerogenes, ATCC13048; Organism No. 23, bouillon-agar; read-out: Minimum Inhibitory Concentration
Outline: as §1

[24] = system: Enterobacter cloacae 963; assay: Antibacterial activity, agar-dilution MIC, organism No. 24; conditions: Enterobacter cloacae, 963; Organism No. 24, bouillon-agar; read-out: Minimum Inhibitory Concentration
Outline: as §1

[25] = system: Micrococcus luteus ATCC 9341; assay: Antibacterial activity, agar-dilution MIC, organism No. 25; conditions: Micrococcus luteus, ATCC9341; Organism No. 25, bouillon-agar; read-out: Minimum Inhibitory Concentration
Outline: as §1

[26] = system: Streptococcus pyogenes IFO 3340; assay: Antibacterial activity, agar-dilution MIC, organism No. 26; conditions: Streptococcus pyogenes, IFO3340; Organism No. 26, bouillon-agar; read-out: Minimum Inhibitory Concentration
Outline: as §1

[27] = system: Streptococcus faecium IFO 3826; assay: Antibacterial activity, agar-dilution MIC, organism No. 27; conditions: Enterococcus faecium, IFO3826; Organism No. 27, bouillon-agar; read-out: Minimum Inhibitory Concentration
Outline: as §1

[28] = system: Mycoplasma pneumoniae IID817; assay: Antimycoplasmal activity, MIC by phenol red colour change, organism No. 28; conditions: Mycoplasma, IID817; Organism No. 28, PPLO broth + 1% glucose, 37° C.; read-out: Minimum Inhibitory Concentration (MIC)
Method: Mycoplasma pneumoniae IID817 was used as the test microorganism in a culture medium prepared by adding 1% of glucose to "PPLO broth (manufactured by Difco Co.) liquid culture medium" at 37° C. with phenol red as an indicator, thereby culturing the test microorganism.

[29] = system: Candida albicans IAM 4905; assay: Antifungal activity, agar-dilution MIC, organism No. 29; conditions: Candida albicans, IAM4905; Organism No. 29, bouillon-agar; read-out: Minimum Inhibitory Concentration
Outline: as §1

[30] = system: Aspergillus niger IFO 6342; assay: Antifungal activity, agar-dilution MIC, organism No. 30; conditions: Aspergillus niger, IFO6342; Organism No. 30, bouillon-agar; read-out: Minimum Inhibitory Concentration
Outline: as §1

Row | SMILES | MIC [1] [mg/L] | MIC [2] [mg/L] | MIC [3] [mg/L] | MIC [4] [mg/L] | MIC [5] [mg/L] | MIC [6] [mg/L] | MIC [7] [mg/L] | MIC [8] [mg/L] | MIC [9] [mg/L] | MIC [10] [mg/L] | MIC [11] [mg/L] | MIC [12] [mg/L] | MIC [13] [mg/L] | MIC [14] [mg/L] | MIC [15] [mg/L] | MIC [16] [mg/L] | MIC [17] [mg/L] | MIC [18] [mg/L] | MIC [19] [mg/L] | MIC [20] [mg/L] | also measured
1 | [C-]#[N+]C12CC3(/C=C/C(=O)OCc4ccc([N+](=O)[O-])cc4)OC3C1O2 (stereo not drawn) [compound 15] | 25 (≈ 76.2 µM) | 50 (≈ 152 µM) | 25 (≈ 76.2 µM) | 50 (≈ 152 µM) | 50 (≈ 152 µM) | 50 (≈ 152 µM) | 12.5 (≈ 38.1 µM) | 50 (≈ 152 µM) | 25 (≈ 76.2 µM) | 25 (≈ 76.2 µM) | 12.5 (≈ 38.1 µM) | 50 (≈ 152 µM) | > 100 | 50 (≈ 152 µM) | > 100 | > 100 | > 100 | 25 (≈ 76.2 µM) | 100 (≈ 305 µM) | 6.25 (≈ 19 µM) | MIC [21]: < 0.1 mg/L; MIC [22]: > 100 mg/L; MIC [23]: > 100 mg/L; MIC [24]: > 100 mg/L; MIC [25]: < 0.1 mg/L; MIC [26]: 50 mg/L (≈ 152 µM); MIC [27]: 25 mg/L (≈ 76.2 µM); MIC [28]: 12 mg/L; MIC [29]: 6.25 mg/L (≈ 19 µM); MIC [30]: 6.25 mg/L (≈ 19 µM)
2 | [C-]#[N+]C12CC3(/C=C/C(=O)NOC)OC3C1O2 (stereo not drawn) [compound 81] | 25 (≈ 113 µM) | 25 (≈ 113 µM) | 12.5 (≈ 56.3 µM) | 25 (≈ 113 µM) | 12.5 (≈ 56.3 µM) | 12.5 (≈ 56.3 µM) | 200 (≈ 900 µM) | 12.5 (≈ 56.3 µM) | 6.25 (≈ 28.1 µM) | 6.25 (≈ 28.1 µM) | 12.5 (≈ 56.3 µM) | 6.25 (≈ 28.1 µM) | 200 (≈ 900 µM) | 50 (≈ 225 µM) | 200 (≈ 900 µM) | 200 (≈ 900 µM) | > 200 | 25 (≈ 113 µM) | 100 (≈ 450 µM) | 50 (≈ 225 µM) | MIC [21]: 6.25 mg/L (≈ 28.1 µM); MIC [22]: 100 mg/L (≈ 450 µM); MIC [23]: > 200 mg/L; MIC [24]: > 200 mg/L; MIC [25]: 100 mg/L (≈ 450 µM); MIC [26]: 6.25 mg/L (≈ 28.1 µM); MIC [27]: 12.5 mg/L (≈ 56.3 µM); MIC [28]: < 0.2 mg/L; MIC [29]: 12.5 mg/L (≈ 56.3 µM); MIC [30]: 6.25 mg/L (≈ 28.1 µM)
3 | [C-]#[N+]C12CC3(/C=C/C(=O)OCC(=O)c4ccc(Br)cc4)OC3C1O2 (stereo not drawn) [Compound No. 4, p-bromophenacylβ-substituted acrylate] | 0.4 (≈ 1.03 µM) | 0.78 (≈ 2 µM) | 1.56 (≈ 4 µM) | 12.5 (≈ 32 µM) | 6.25 (≈ 16 µM) | < 0.05 | 6.25 (≈ 16 µM) | 6.25 (≈ 16 µM) | 3.13 (≈ 8.02 µM) | < 0.05 | < 0.05 | 3.13 (≈ 8.02 µM) | > 100 | 12.5 (≈ 32 µM) | > 100 | > 100 | > 100 | 100 (≈ 256 µM) | > 200 | 0.39 (≈ 1 µM) | MIC [21]: 0.39 mg/L (≈ 1 µM); MIC [22]: 100 mg/L (≈ 256 µM); MIC [23]: 100 mg/L (≈ 256 µM); MIC [24]: 0.2 mg/L (≈ 0.513 µM); MIC [25]: < 0.05 mg/L; MIC [26]: 6.25 mg/L (≈ 16 µM); MIC [27]: 12.5 mg/L (≈ 32 µM); MIC [28]: < 0.05 mg/L; MIC [29]: 1.56 mg/L (≈ 4 µM); MIC [30]: 6.25 mg/L (≈ 16 µM)
4 | [C-]#[N+]C12CC3(/C=C/C(=O)OCC(C)C)OC3C1O2 (stereo not drawn) [compound 18] | 0.39 (≈ 1.56 µM) | 12.5 (≈ 50.1 µM) | 3.13 (≈ 12.6 µM) | 0.78 (≈ 3.13 µM) | 12.5 (≈ 50.1 µM) | 12.5 (≈ 50.1 µM) | 1.56 (≈ 6.26 µM) | 12.5 (≈ 50.1 µM) | 3.13 (≈ 12.6 µM) | 1.56 (≈ 6.26 µM) | 0.78 (≈ 3.13 µM) | 6.25 (≈ 25.1 µM) | 200 (≈ 802 µM) | 0.78 (≈ 3.13 µM) | > 200 | 200 (≈ 802 µM) | > 200 | 3.13 (≈ 12.6 µM) | 6.25 (≈ 25.1 µM) | 0.2 (≈ 0.802 µM) | MIC [21]: 0.1 mg/L (≈ 0.401 µM); MIC [22]: 100 mg/L (≈ 401 µM); MIC [23]: > 200 mg/L; MIC [24]: 200 mg/L (≈ 802 µM); MIC [25]: 1.56 mg/L (≈ 6.26 µM); MIC [26]: 1.56 mg/L (≈ 6.26 µM); MIC [27]: 12.5 mg/L (≈ 50.1 µM); MIC [28]: < 0.2 mg/L; MIC [29]: 0.2 mg/L (≈ 0.802 µM); MIC [30]: 0.78 mg/L (≈ 3.13 µM)
